Assay results published in article PMC7093416, “Selective USP7 inhibition elicits cancer cell killing through a p53-dependent mechanism” (Scientific Reports, 2020).
“And” between values parts separate entries of the source, which are not always exact repeats. Equal values may be shown once.

Test system: panel of 484 cancer cell lines
Experiment: PRISM cancer cell line profiling, 5 days
Assay type: cell-based
Parameters: Viability: scale not given here; AUC: unit not given beside the values
Experimental: Cancer cell line profiling was performed using the Broad’s PRISM platform. Cell treatment and data analysis were performed as described in Yu et al[42]. Raw Luminex signal was converted to AUC values for each cell line as described. The resulting AUC profile for each compound was modeled against DepMap using the limma package in R[71]. Because hotspot mutation analysis was performed against DepMap, TP53 annotations in Fig. 6c,d are directly from DepMap.

[1] = ISHIKAWAHERAKLIO02ER_ENDOMETRIUM, pert_dose 6.10E-04
[2] = ISTMES1_PLEURA, pert_dose 6.10E-04
[3] = J82_URINARY_TRACT, pert_dose 6.10E-04
[4] = JHOC5_OVARY, pert_dose 6.10E-04
[5] = JHOM1_OVARY, pert_dose 6.10E-04
[6] = JHOS2_OVARY, pert_dose 6.10E-04
[7] = JHUEM2_ENDOMETRIUM, pert_dose 6.10E-04
[8] = JMSU1_URINARY_TRACT, pert_dose 6.10E-04
[9] = K029AX_SKIN, pert_dose 6.10E-04
[10] = KMBC2_URINARY_TRACT, pert_dose 6.10E-04
[11] = KMRC1_KIDNEY, pert_dose 6.10E-04
[12] = KMRC3_KIDNEY, pert_dose 6.10E-04
[13] = KMRC20_KIDNEY, pert_dose 6.10E-04
[14] = KNS42_CENTRAL_NERVOUS_SYSTEM, pert_dose 6.10E-04
[15] = KNS60_CENTRAL_NERVOUS_SYSTEM, pert_dose 6.10E-04
[16] = KNS81_CENTRAL_NERVOUS_SYSTEM, pert_dose 6.10E-04
[17] = KP3_PANCREAS, pert_dose 6.10E-04
[18] = KPL1_BREAST, pert_dose 6.10E-04

For COc1ccc(C2=N[C@@H](c3ccc(Cl)cc3)[C@@H](c3ccc(Cl)cc3)N2C(=O)N2CCNC(=O)C2)c(OC(C)C)c1 [Nutlin-3A], the “MFI ISHIKAWAHERAKLIO02ER_ENDOMETRIUM” value [1] was 17513 and 21089 and 23031 and 24710 and 21077, the Viability [1] was 1.048 and the AUC (ISTMES1_PLEURA) was 0.8886. For the same compound, the “MFI ISTMES1_PLEURA” value [2] was 2566 and 2035 and 2347.5 and 2015 and 3109, the Viability [2] was 1.235 and the AUC (ISTMES2_PLEURA) was 1.138. For the same compound, the AUC (J82_URINARY_TRACT) was 1.1759, the “MFI J82_URINARY_TRACT” value [3] was 7594 and 8347 and 7959 and 7415.5 and 7720 and the Viability [3] was 1.013. The AUC (JHH1_LIVER) was 0.9453, the “MFI JHH1_LIVER” value (JHH1_LIVER, pert_dose 6.10E-04) was 11573 and 10266 and 10186 and 11807 and 10726 and the Viability (JHH1_LIVER, pert_dose 6.10E-04) was 1.394. For the same compound, the AUC (JHH4_LIVER) was 1.013, the “MFI JHH4_LIVER” value (JHH4_LIVER, pert_dose 6.10E-04) was 1508 and 1417.5 and 1162 and 1639 and 865 and the Viability (JHH4_LIVER, pert_dose 6.10E-04) was 1.304. For the same compound, the AUC (JHH5_LIVER) was 1.1112, the “MFI JHH5_LIVER” value (JHH5_LIVER, pert_dose 6.10E-04) was 3002.5 and 2853 and 3080 and 1890 and 2323 and the Viability (JHH5_LIVER, pert_dose 6.10E-04) was 1.08. The AUC (JHH6_LIVER) was 1.195, the AUC (JHH7_LIVER) was 1.097 and the “MFI JHH7_LIVER” value (JHH7_LIVER, pert_dose 6.10E-04) was 18251 and 14971.5 and 12968 and 19915 and 22149.5. The Viability (JHH7_LIVER, pert_dose 6.10E-04) was 1.3367, the AUC (JHOC5_OVARY) was 0.8963 and the “MFI JHOC5_OVARY” value [4] was 1729 and 2155 and 2543 and 1875 and 1529. The Viability [4] was 1.248, the AUC (JHOM1_OVARY) was 1.061 and the “MFI JHOM1_OVARY” value [5] was 10909 and 10588 and 11258 and 11487.5 and 8758. The Viability [5] was 1.182, the AUC (JHOS2_OVARY) was 1.199 and the “MFI JHOS2_OVARY” value [6] was 8954 and 9206 and 9624 and 7221 and 11208. The Viability [6] was 1.028, the AUC (JHUEM2_ENDOMETRIUM) was 0.8108 and the “MFI JHUEM2_ENDOMETRIUM” value [7] was 2855 and 2201 and 2113.5 and 2693 and 2731. For the same compound, the Viability [7] was 1.224, the AUC (JIMT1_BREAST) was 1.15 and the “MFI JIMT1_BREAST” value (JIMT1_BREAST, pert_dose 6.10E-04) was 10595.5 and 12336 and 13040 and 10400 and 10776.5. For the same compound, the AUC (JMSU1_URINARY_TRACT) was 1.157, the “MFI JMSU1_URINARY_TRACT” value [8] was 4527 and 4135 and 3123.5 and 5456 and 3525 and the Viability [8] was 1.215. The AUC (K029AX_SKIN) was 1.078, the “MFI K029AX_SKIN” value [9] was 12564 and 8034.5 and 10939 and 12309 and 13968 and the Viability [9] was 1.186. It also gave an AUC (KALS1_CENTRAL_NERVOUS_SYSTEM) of 1.089, an AUC (KELLY_AUTONOMIC_GANGLIA) of 1.128 and a Viability (KELLY_AUTONOMIC_GANGLIA, pert_dose 6.10E-04) of 1.339. For the same compound, the AUC (KMBC2_URINARY_TRACT) was 0.9038, the “MFI KMBC2_URINARY_TRACT” value [10] was 31608 and 32944 and 28231 and 28847.5 and 34382 and the Viability [10] was 1.231. The AUC (KMRC1_KIDNEY) was 0.8619, the “MFI KMRC1_KIDNEY” value [11] was 5006 and 3553 and 4568 and 4375 and 4801 and the Viability [11] was 1.324. For the same compound, the AUC (KMRC3_KIDNEY) was 1.059, the “MFI KMRC3_KIDNEY” value [12] was 29567 and 34290 and 33080.5 and 28662.5 and 32330 and the Viability [12] was 1.163. For the same compound, the AUC (KMRC20_KIDNEY) was 1.075, the “MFI KMRC20_KIDNEY” value [13] was 6115 and 7240 and 5574 and 9127.5 and 7315 and the Viability [13] was 0.8672. For the same compound, the AUC (KNS42_CENTRAL_NERVOUS_SYSTEM) was 1.094, the “MFI KNS42_CENTRAL_NERVOUS_SYSTEM” value [14] was 8504.5 and 8227 and 7874 and 8635.5 and 8359 and the Viability [14] was 1.265. For the same compound, the AUC (KNS60_CENTRAL_NERVOUS_SYSTEM) was 1.169, the “MFI KNS60_CENTRAL_NERVOUS_SYSTEM” value [15] was 11444.5 and 12827 and 11109 and 11402 and 11624 and the Viability [15] was 1.1124. The AUC (KNS62_LUNG) was 1.292, the “MFI KNS62_LUNG” value (KNS62_LUNG, pert_dose 6.10E-04) was 2968.5 and 3165 and 4343 and 4527 and 3128 and the Viability (KNS62_LUNG, pert_dose 6.10E-04) was 1.098. For the same compound, the AUC (KNS81_CENTRAL_NERVOUS_SYSTEM) was 0.9079, the “MFI KNS81_CENTRAL_NERVOUS_SYSTEM” value [16] was 11445 and 13291.5 and 12010.5 and 13242.5 and 18307.5 and the Viability [16] was 0.9016. The AUC (KP2_PANCREAS) was 1.091, the AUC (KP3_PANCREAS) was 1.107 and the “MFI KP3_PANCREAS” value [17] was 17810 and 19047 and 22202 and 17616 and 20627.5. For the same compound, the Viability [17] was 1.1325, the AUC (KP4_PANCREAS) was 1.1795 and the “MFI KP4_PANCREAS” value (KP4_PANCREAS, pert_dose 6.10E-04) was 27317.5 and 27770 and 29960.5 and 31578.5 and 28421.5. The AUC (KPL1_BREAST) was 0.8742, the “MFI KPL1_BREAST” value [18] was 9781 and 14848 and 14727 and 9958 and 12061.5 and the Viability [18] was 0.9855. For the same compound, the AUC (KU1919_URINARY_TRACT) was 0.8508, the AUC (KURAMOCHI_OVARY) was 1.126 and the AUC (KYSE30_OESOPHAGUS) was 0.985. For the same compound, the AUC (KYSE70_OESOPHAGUS) was 1.1193, the AUC (KYSE140_OESOPHAGUS) was 1.1498 and the AUC (KYSE150_OESOPHAGUS) was 1.138. The AUC (KYSE180_OESOPHAGUS) was 1.143, the AUC (KYSE270_OESOPHAGUS) was 0.9726 and the AUC (KYSE410_OESOPHAGUS) was 1.088. It also gave an AUC (KYSE510_OESOPHAGUS) of 0.9924, an AUC (KYSE520_OESOPHAGUS) of 1.08 and an AUC (L33_PANCREAS) of 1.295. The AUC (LC1SQSF_LUNG) was 1.142.
